Legend:
Assay type in all cases: ADME, cell-based
[1] = Intracellular drug level in CEM CCL19 cells at 20 ug/ml after 24 hrs; settings: human, ccrf-cem
PBMC [2] = test: Intracellular drug level in human PBMC at 0.2 ug/ml after 24 hrs
PBMC [3] = test: Intracellular drug level in human PBMC at 2 ug/ml after 24 hrs
PBMC [4] = test: Intracellular drug level in human PBMC at 20 ug/ml after 24 hrs
[5] = Increase in accumulation of the drug in CEM CCL19 cells in presence of 50 uM Verapamil relative to control; settings: human, ccrf-cem
[6] = Increase in accumulation of the drug in CEM CCL19 cells in presence of 50 uM Probenecid relative to control; settings: human, ccrf-cem
[7] = Decrease in accumulation of the drug in CEM CCL19 cells in presence of 28 uM Nevirapine relative to control; design: scale not given: the % may be the effect or the level left; settings: human, ccrf-cem
[8] = Ratio of intracellular drug level to extracellular drug level in CEM CCL19 cells at 0.2 ug/ml after 24 hrs; settings: human, ccrf-cem
[9] = Ratio of intracellular drug level to extracellular drug level in CEM CCL19 cells at 2 ug/ml after 24 hrs; settings: human, ccrf-cem
[10] = Ratio of intracellular drug level to extracellular drug level in CEM CCL19 cells at 20 ug/ml after 24 hrs; settings: human, ccrf-cem
PBMC [11] = test: Ratio of intracellular drug level to extracellular drug level in human PBMC at 0.2 ug/ml after 24 hrs
PBMC [12] = test: Ratio of intracellular drug level to extracellular drug level in human PBMC at 2 ug/ml after 24 hrs
PBMC [13] = test: Ratio of intracellular drug level to extracellular drug level in human PBMC at 20 ug/ml after 24 hrs
[14] = Increase in accumulation of the drug in CEM CCL19 cells in presence of 50 uM Dipyridamole relative to control; settings: human, ccrf-cem
[15] = Increase in accumulation of the drug in CEM CCL19 cells in presence of 24 uM Efavirenz relative to control; settings: human, ccrf-cem
[16] = Intracellular drug level in CEM CCL19 cells at 2 ug/ml after 24 hrs; settings: human, ccrf-cem
[17] = Intracellular drug level in CEM CCL19 cells at 0.2 ug/ml after 24 hrs; settings: human, ccrf-cem

Drug uptake [1]: 0.8423 µg/mL
Drug uptake (PBMC [2]): 3.838 µg/mL
Drug uptake (PBMC [3]): 5.409 µg/mL
Drug uptake (PBMC [4]): 12.048 µg/mL
Activity [5]: 70%
Activity [6]: 25%
Activity [7]: 50%
Ratio [8]: 0.44
Ratio [9]: 0.1
Ratio [10]: 0.04
Ratio (PBMC [11]): 19.2
Ratio (PBMC [12]): 2.7
Ratio (PBMC [13]): 0.602
Activity [14]: 125%
Activity [15]: 125%
Drug uptake [16]: 0.2049 µg/mL
Drug uptake [17]: 0.0887 µg/mL
Structure (SMILES): COC(=O)N[C@H](C(=O)N[C@@H](Cc1ccccc1)[C@@H](O)CN(Cc1ccc(-c2ccccn2)cc1)NC(=O)[C@@H](NC(=O)OC)C(C)(C)C)C(C)(C)C [ATAZANAVIR]

From ChEMBL document CHEMBL1142181, “Quantitative immunoassay to measure plasma and intracellular atazanavir levels: analysis of drug accumulation in cultured T cells” (Antimicrob Agents Chemother, 2007)
